Data: patent US20100137344A1, “INDUCTION OF ANALGESIA IN NEUROPATHIC PAIN” (University Court of the University of Edinburgh, priority 2006, published 2010)

How the values were obtained:
Type in all cases: in vivo, rat
[1] = system: rats with Complete Freund's Adjuvant (CFA)-induced inflammation; assay: Intrathecal icilin in CFA inflammatory pain model (PWL, PWT); conditions: icilin 10 nmol, i.t.
Method: Pain models were generated under halothane anaesthesia (Zeneca, Cheshire, UK). For the chronic constriction injury (CCI) model of neuropathic pain, four ligatures were tied loosely to constrict the sciatic nerve at mid-thigh level (as described previously^[39]). An inflammatory pain model was generated by injecting 100 μl of Complete Freund's Adjuvant (CFA, Sigma-Aldrich Ltd) into the ventral surface of the right hindpaw^[39]. A model of peripheral demyelination-induced pain was produced by focal application of lysolecithin to the sciatic nerve^[40]. Peak behavioural sensitisation was observed post-surgically between days 10-16 for CCI, 1-3 for CFA, and 7-14 for lysolecithin, when pharmacological and electrophysiological experiments and tissue removal were conducted.
Thermal sensitivity was assessed by measuring paw withdrawal latency (PWL, s) in response to a noxious thermal stimulus (Hargreaves' thermal stimulator, Linton Instrumentation, Diss, UK) directed to the hindpaw mid-plantar glabrous surface. Mechanical sensitivity was recorded as the paw withdrawal threshold (PWT, mN/mm^2) to calibrated von Frey filaments (Stoelting, Ill., US), as previously described^[39]. Sensitivity to noxious cold was assessed by placing animals in a waterbath with an aluminium floor containing 1 cm deep 4° C. water and counting the time the paw was held suspended over a 20 s period.
The following drugs were applied intrathecally in a 50 μl volume of saline-based vehicle at 37° C.: icilin (2.5-200 μM in saline with 0.2% dimethylformamide, DMF), LY 341495 (100 μM in saline), UBP 1112 (200 μM in saline), 2R,4R-APDC ((2R, 4R)-4-aminopyrrolidine-2,4-dicarboxylate), 300 μM in saline), ACPT-III ((1R,3R,4S)-1-aminocyclopentane-1,3,4-tricarboxylic acid), 3 mM in saline), AP-4, ((L-(1)-2-amino-4-phosphonobutyric acid), 3 mM in saline), naloxone (0.5 mM in saline), NMDA (75 μM in saline) and ACPC (1-aminocyclopropanecarboxylic acid, 15 μM in saline) (Tocris Cookson, Bristol, UK), (−)-menthol (1R,2S,5R-(−)-menthol, 4 mM in saline), cinnamaldehyde (1.5 mM in saline) and Ruthenium Red (5 μM in saline) (Sigma-Aldrich Co. Ltd, UK) and allicin (0.5 mM in saline with 0.5% DMF) and diallyl disulphide (DADS, 1 mM in saline with 0.5% DMF) (LKT Laboratories Inc., St Paul, Minn., USA). […] Behavioural reflex testing commenced 15 min following injection to allow recovery from anaesthesia^[40,41,42] and continued every 5 min thereafter until readings returned to baseline levels (n=6 in each case). […]
The TRPM8 channel activators, icilin and (−)-menthol were tested in CCI and naïve animals. The effects of icilin were additionally assessed in animals with CFA-induced inflammation or with lysolecithin-induced demyelination. […]

dorsal horn neurons = assay: Extracellular recordings of single spinal dorsal horn neurons in CCI animals (brush-evoked firing); conditions: icilin 200 μM topical
Method: Peripheral: Recordings of saphenous (sensory) nerve were made in naïve animals (n=7) to assess the effects of topical icilin on primary afferents. In addition, recordings were carried out on animals which had undergone TRPM8 antisense or mis-sense treatment beginning 4-5 days previously. Rats were anaesthetised (with 0.6 ml 25% urethane/100 g, i.p.) and the saphenous nerve was exposed and dissected from its associated vein and artery. Further dissection under liquid paraffin enabled identification of afferent preparations comprising a small number of fibres. The conduction velocity of single identified afferent fibres was determined using bipolar electrodes and the peripheral stimulus technique^[43]. Following isolation of preparations, icilin (200 μM in water with 0.2% DMF), (−)-menthol (4 mM in 25% ethanol) resiniferatoxin (1 mM in ethanol) or vehicle alone were applied to the hindlimb receptive fields and neuronal responses recorded using the Chart programme (version 3.6). Central: Recordings of spinal dorsal horn neurons were made in CCI animals, as described previously^[39]. Following halothane induction, the jugular vein and trachea were canulated and intravenous anaesthetic delivered: α-chloralose ([…], Fisher) and urethane ([…], Sigma), with small supplementary doses of α-chloralose as required throughout the experiment. Core body temperature was maintained at 37-38° C. by means of a thermostatically controlled heated blanket. The animal was placed in a stereotaxic frame, and the thoracolumbar spinal column was supported using three pairs of swan-necked clamps. A laminectomy was performed at L2-L5, and agar (2% in saline at 37° C.) was delivered over exposed cord to increase mechanical stability. Above the recording region the agar and spinal cord dura were removed and liquid paraffin poured into the pool. Extracellular recordings were made from single multireceptive neurons in laminae I-IV through the centre barrel of a seven-barrelled glass microelectrode filled with 4M NaCl (tip-diameter […], DC resistance 5-8 MΩ). The receptive fields of hair-follicle innervated neurons on the distal hindlimb were identified by an innocuous brush stimulus^[39]. Icilin (200 μM in water with 0.2% DMF) was applied peripherally to the receptive field of individual recorded neurons, and the effect on neuronal response to a rotating brush was recorded and analysed using Spike2 programme (Version 3.2, CED). The Group III mGluR antagonist UBP 1112 (20 mM in water), pH 8.5, and control 1M NaCl, pH 8.5 were ionophoresed from the side barrels of the electrode using currents of between 20 nA and 80 nA (Neurophore BH2 ionophoresis system, Medical Systems, Great Neck, N.Y.) to measure effects on neuronal response to icilin.

[2] = system: CCI model of neuropathic pain; assay: Cold allodynia in CCI model, Peltier controlled footplate; conditions: icilin 200 μM topical
Method: In the CCI model of neuropathic pain, cold allodynia was assessed by scoring the number of paw flick-associated paw withdrawals from a Peltier controlled footplate that was reduced in temperature from control (30° C.) to mild cooling (20° C.). Icilin (200 μM) was applied topically (as in FIG. 1). Values are shown as means±SEM, ipsilateral (⋄) to nerve injury. † Indicates statistically significant reversal of cool allodynia.

O=C1NC(c2cccc([N+](=O)[O-])c2)=CCN1c1ccccc1O [icilin, 1-(2′-hydroxyphenyl)-4-(3″-nitrophenyl)-1,2,3,6-tetrahydropyrimidin-2-one]
Mean % reversal of mechanical sensitisation (after 15-30 mins) [1]: 42.6 ± 2.8% | Mean % reversal of thermal sensitisation (after 15-30 mins) [1]: 66.0 ± 7.5% | PWL (s) difference from control (+ icilin) [1]: 1.6 ± 1.6 s | PWT (mN/mm^2) difference from control (+ icilin) [1]: 1707.6 ± 149.9 mN/mm^2 | brush-induced responses of contralateral neurons (dorsal horn neurons; contralateral, n=6): 111.9±8.9 % of control | brush-induced responses (dorsal horn neurons; ipsilateral to CCI, 8 neurons out of 12 affected): 37.4±5.5% | analgesia against cold allodynia (paw withdrawals, footplate 30° C. to 20° C.) [2]: provides analgesia against the cold allodynia
